Experimental data as given in ChEMBL document CHEMBL5055675, “Apoptosis Inducing 1,3,4-Oxadiazole Conjugates of Capsaicin: Their In Vitro Antiproliferative and In Silico Studies” (ACS Med Chem Lett, 2021).
The source made the active and inactive calls. No cut-off for these calls is given here.

What was measured:
NCI-H460 [1] = assay: Effect on p53 expression in human NCI-H460 cells at 1 to 20 uM measured after 72 hrs by western blot analysis; type: functional, cell-based; conditions: dose 1-20 µM
NCI-H460 [2] = assay: Inhibition of cell proliferation in human NCI-H460 cells assessed as reduction in PCNA expression measured after 72 hrs by western blot analysis; type: functional, cell-based; conditions: dose 1-20 µM
NCI-H460 [3] = assay: Cell cycle arrest in human NCI-H460 cells assessed as accumulation of cells in S phase at 20 uM measured after 72 hrs by propidium iodide/RNase staining based flow cytometry analysis (Rvb= 26.87%); type: functional
NCI-H460 [4] = assay: Cell cycle arrest in human NCI-H460 cells assessed as accumulation of cells in G1 phase at 5 uM measured after 72 hrs by propidium iodide/RNase staining based flow cytometry analysis (Rvb= 62.9%); type: functional
NCI-H460 [5] = assay: Induction of apoptosis in human NCI-H460 cells assessed as early apoptotic cells at 5 uM measured after 72 hrs by Annexin V-FITC and propidium iodide staining based flow cytometry analysis (Rvb= 6.61%); type: functional
NCI-H460 [6] = assay: Cell cycle arrest in human NCI-H460 cells assessed as accumulation of cells in S phase at 10 uM measured after 72 hrs by propidium iodide/RNase staining based flow cytometry analysis (Rvb= 26.87%); type: functional
NCI-H460 [7] = assay: Induction of apoptosis in human NCI-H460 cells assessed as decrease in pro-caspase3 expression level at 1 to 20 uM measured after 72 hrs by western blot analysis; type: functional, cell-based; conditions: dose 1-20 µM
NCI-H460 [8] = assay: Effect on total ERK expression in human NCI-H460 cells at 1 to 20 uM measured after 72 hrs by western blot analysis; type: functional, cell-based; conditions: dose 1-20 µM
NCI-H460 [9] = assay: Cell cycle arrest in human NCI-H460 cells assessed as accumulation of cells in G1 phase at 20 uM measured after 72 hrs by propidium iodide/RNase staining based flow cytometry analysis (Rvb= 62.9%); type: functional
NCI-H460 [10] = assay: Induction of ROS production in human NCI-H460 cells incubated for 24 hrs by CM-H2DCFDA probe based flow cytometry analysis; type: functional, cell-based; conditions: dose 5-20 µM
NCI-H460 [11] = assay: Antimigratory activity against human NCI-H460 cells assessed as reduction in VEGF expression level measured after 72 hrs by western blot analysis; type: functional, cell-based; conditions: dose 1-20 µM
NCI-H460 [12] = assay: Antimigratory activity against human NCI-H460 cells assessed as reduction in vimentin expression level at 1 to 20 uM measured after 72 hrs by western blot analysis; type: functional, cell-based; conditions: dose 1-20 µM
NCI-H460 [13] = assay: Induction of apoptosis in human NCI-H460 cells assessed as late apoptotic cells at 10 uM measured after 72 hrs by Annexin V-FITC and propidium iodide staining based flow cytometry analysis (Rvb= 6.93%); type: functional
NCI-H460 [14] = assay: Inhibition of ERK phosphorylation in human NCI-H460 cells at 20 uM measured after 72 hrs by western blot analysis; type: cell-based
NCI-H460 [15] = assay: Inhibition of colony formation in human NCI-H460 cells assessed as reduction in colony formation incubated for 15 days and subsequent media replacement with compound for every 72 hrs by crystal violet staining based assay; type: functional, cell-based; conditions: dose 5-20 µM, time 15.0 day
NCI-H460 [16] = assay: Induction of apoptosis in human NCI-H460 cells assessed as early apoptotic cells at 10 uM measured after 72 hrs by Annexin V-FITC and propidium iodide staining based flow cytometry analysis (Rvb= 6.61%); type: functional

COc1cc(CNC(=O)CCCC/C=C/C(C)C)ccc1OCc1nnc(Nc2ccc([N+](=O)[O-])cc2)o1
Activity (NCI-H460 [1]): inactive | inhibition (NCI-H460 [2]): Dose-dependent effect | Activity (NCI-H460 [3]): 34.83% | Activity (NCI-H460 [4]): 61.8% | Activity (NCI-H460 [5]): 5.45% | Activity (NCI-H460 [6]): 29.05% | Activity (NCI-H460 [7]): Active | Activity (NCI-H460 [8]): inactive | Activity (NCI-H460 [9]): 56.45% | Activity (NCI-H460 [10]): Dose-dependent effect | Activity (NCI-H460 [11]): Dose-dependent effect | Activity (NCI-H460 [12]): inactive | Activity (NCI-H460 [13]): 9.27% | inhibition (NCI-H460 [14]): Active | inhibition (NCI-H460 [15]): Dose-dependent effect | Activity (NCI-H460 [16]): 8.29%
